Measured values taken from article PMC6407917, “Identification of GSK3186899/DDD853651 as a Preclinical Development Candidate for the Treatment of Visceral Leishmaniasis” (Journal of Medicinal Chemistry, 2018).

Tests used:
Experiment in all cases: biochemical
Design in all cases: species or system HEK293/K-562/placenta mixed human extract; Kinobeads chemoproteomic competition binding, quantified by TMT LC-MS/MS, dose response up to 20 uM
[1] = target: CLK1 (Homo sapiens, UniProt P49759)
[2] = target: BMX (Homo sapiens, UniProt P51813)
Sequence of BMX (P51813 whole entry): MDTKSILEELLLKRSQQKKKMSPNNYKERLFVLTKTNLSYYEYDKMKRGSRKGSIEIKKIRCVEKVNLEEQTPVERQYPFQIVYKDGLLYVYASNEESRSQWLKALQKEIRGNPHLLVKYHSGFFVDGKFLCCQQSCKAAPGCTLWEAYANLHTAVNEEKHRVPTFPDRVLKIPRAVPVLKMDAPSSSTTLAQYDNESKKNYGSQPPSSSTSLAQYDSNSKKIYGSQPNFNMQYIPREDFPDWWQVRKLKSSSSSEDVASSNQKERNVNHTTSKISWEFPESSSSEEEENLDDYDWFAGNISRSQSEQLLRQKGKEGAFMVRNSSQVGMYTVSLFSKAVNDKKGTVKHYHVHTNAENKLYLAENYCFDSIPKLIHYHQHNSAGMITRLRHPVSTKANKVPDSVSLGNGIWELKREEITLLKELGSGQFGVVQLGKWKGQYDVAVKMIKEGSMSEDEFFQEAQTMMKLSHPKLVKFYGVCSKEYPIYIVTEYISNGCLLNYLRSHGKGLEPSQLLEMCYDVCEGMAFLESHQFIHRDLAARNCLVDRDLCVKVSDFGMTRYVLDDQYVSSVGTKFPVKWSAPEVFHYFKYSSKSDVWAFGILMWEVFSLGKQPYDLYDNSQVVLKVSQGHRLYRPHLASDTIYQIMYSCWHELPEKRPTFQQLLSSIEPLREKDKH

[3] = target: PAK6 (Homo sapiens, UniProt Q9NQU5)
[4] = target: CSK (Homo sapiens, UniProt P41240)
[5] = target: CDKL5 (Homo sapiens, UniProt O76039)
Sequence of CDKL5 (O76039 whole entry): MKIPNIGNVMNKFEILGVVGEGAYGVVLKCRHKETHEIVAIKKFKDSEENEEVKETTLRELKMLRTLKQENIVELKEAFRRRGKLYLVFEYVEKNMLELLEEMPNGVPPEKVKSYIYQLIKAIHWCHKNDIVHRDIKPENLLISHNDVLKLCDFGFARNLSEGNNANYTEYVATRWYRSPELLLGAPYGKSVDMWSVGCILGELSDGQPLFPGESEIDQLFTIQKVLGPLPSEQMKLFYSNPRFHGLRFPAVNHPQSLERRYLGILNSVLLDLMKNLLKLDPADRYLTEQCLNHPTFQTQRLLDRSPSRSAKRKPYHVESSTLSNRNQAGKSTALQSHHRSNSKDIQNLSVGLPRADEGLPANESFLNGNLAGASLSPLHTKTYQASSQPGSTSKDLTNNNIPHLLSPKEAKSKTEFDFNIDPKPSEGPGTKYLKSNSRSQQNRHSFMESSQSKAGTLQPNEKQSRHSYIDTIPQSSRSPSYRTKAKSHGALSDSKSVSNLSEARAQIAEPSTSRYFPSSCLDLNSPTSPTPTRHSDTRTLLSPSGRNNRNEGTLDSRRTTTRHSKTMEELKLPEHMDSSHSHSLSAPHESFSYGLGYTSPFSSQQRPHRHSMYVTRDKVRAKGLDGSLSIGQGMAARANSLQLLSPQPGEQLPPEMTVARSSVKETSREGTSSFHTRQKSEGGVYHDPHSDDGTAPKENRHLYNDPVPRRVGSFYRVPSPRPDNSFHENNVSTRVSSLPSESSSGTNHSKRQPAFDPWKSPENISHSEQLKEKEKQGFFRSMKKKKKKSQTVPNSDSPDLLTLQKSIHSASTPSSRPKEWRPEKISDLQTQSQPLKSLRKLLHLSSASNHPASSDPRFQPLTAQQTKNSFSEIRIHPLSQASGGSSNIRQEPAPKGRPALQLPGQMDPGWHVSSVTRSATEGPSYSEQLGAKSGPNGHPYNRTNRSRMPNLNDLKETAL

[6] = target: MAP3K15 (Homo sapiens, UniProt Q6ZN16)
Sequence of MAP3K15 (Q6ZN16 whole entry): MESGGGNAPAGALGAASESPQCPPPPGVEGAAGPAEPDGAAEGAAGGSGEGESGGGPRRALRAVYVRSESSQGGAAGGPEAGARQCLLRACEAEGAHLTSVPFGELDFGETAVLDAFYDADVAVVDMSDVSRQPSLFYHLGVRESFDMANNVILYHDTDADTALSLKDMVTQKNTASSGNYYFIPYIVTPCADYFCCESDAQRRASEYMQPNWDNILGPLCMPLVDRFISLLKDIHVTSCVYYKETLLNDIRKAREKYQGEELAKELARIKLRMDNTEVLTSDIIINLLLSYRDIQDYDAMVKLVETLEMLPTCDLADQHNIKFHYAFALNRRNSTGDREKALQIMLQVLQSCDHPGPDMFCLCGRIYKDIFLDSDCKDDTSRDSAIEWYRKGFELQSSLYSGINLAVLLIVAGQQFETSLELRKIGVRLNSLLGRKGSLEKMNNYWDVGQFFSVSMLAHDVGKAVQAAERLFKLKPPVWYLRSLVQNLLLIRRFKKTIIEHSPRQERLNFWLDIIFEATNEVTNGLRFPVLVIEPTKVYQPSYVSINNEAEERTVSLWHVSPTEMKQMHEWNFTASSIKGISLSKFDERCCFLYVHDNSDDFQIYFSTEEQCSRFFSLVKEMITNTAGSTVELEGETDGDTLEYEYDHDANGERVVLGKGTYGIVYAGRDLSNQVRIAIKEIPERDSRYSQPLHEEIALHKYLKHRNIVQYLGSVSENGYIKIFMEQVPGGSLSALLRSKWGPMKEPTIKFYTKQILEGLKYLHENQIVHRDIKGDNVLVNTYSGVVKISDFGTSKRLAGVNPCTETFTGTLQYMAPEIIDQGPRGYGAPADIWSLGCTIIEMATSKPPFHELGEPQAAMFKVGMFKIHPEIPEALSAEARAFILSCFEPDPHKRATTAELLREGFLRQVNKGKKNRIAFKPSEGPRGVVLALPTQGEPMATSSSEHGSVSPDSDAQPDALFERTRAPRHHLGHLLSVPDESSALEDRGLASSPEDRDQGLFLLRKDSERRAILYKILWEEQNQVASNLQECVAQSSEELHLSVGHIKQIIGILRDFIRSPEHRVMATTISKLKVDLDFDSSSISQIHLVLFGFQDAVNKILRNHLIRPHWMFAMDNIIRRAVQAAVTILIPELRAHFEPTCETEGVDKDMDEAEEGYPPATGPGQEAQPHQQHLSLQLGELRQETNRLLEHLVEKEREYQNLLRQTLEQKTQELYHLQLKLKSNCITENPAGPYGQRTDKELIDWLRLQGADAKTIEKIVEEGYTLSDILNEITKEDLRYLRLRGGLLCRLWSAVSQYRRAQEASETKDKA

[7] = target: SGK3 (Homo sapiens, UniProt Q96BR1)
[8] = target: IKBKE (Homo sapiens, UniProt Q14164)
[9] = target: CAMKK2 (Homo sapiens, UniProt Q96RR4)
[10] = target: ABL2 (Homo sapiens, UniProt P42684)
[11] = target: NEK3 (Homo sapiens, UniProt P51956)
[12] = target: PRKCA (Homo sapiens, UniProt P17252)
[13] = target: PRKCQ (Homo sapiens, UniProt Q04759)
[14] = target: NUAK1 (Homo sapiens, UniProt O60285)
[15] = target: RPS6KB1 (Homo sapiens, UniProt P23443)
[16] = target: MAP3K4 (Homo sapiens, UniProt Q9Y6R4)
[17] = target: AXL (Homo sapiens, UniProt P30530)
Sequence of AXL (P30530 whole entry): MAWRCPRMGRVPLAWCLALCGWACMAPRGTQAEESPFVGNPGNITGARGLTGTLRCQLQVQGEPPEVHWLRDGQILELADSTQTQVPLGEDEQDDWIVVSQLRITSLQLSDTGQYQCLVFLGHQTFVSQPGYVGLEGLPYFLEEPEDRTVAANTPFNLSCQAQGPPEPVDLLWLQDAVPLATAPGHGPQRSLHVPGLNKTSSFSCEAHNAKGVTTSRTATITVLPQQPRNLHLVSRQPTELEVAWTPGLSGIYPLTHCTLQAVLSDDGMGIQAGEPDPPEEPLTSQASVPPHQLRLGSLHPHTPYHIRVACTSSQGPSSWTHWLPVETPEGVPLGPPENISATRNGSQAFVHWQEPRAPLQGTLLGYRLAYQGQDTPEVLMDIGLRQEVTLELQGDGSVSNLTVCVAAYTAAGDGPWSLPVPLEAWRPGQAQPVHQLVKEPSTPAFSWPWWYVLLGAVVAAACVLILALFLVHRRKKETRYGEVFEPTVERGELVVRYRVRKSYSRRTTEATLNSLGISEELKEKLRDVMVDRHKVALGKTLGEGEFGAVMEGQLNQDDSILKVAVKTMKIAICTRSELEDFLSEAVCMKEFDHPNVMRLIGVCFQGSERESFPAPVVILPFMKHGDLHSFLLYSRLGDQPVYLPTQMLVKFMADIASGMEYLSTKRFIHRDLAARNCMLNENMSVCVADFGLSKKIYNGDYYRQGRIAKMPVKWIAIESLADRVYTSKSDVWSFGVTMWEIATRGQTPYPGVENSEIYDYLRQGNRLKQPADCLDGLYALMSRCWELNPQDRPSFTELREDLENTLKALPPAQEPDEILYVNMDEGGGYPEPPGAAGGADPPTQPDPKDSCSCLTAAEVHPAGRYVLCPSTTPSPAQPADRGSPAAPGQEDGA

[18] = target: RPS6KA5 (Homo sapiens, UniProt O75582)
Sequence of RPS6KA5 (O75582 whole entry): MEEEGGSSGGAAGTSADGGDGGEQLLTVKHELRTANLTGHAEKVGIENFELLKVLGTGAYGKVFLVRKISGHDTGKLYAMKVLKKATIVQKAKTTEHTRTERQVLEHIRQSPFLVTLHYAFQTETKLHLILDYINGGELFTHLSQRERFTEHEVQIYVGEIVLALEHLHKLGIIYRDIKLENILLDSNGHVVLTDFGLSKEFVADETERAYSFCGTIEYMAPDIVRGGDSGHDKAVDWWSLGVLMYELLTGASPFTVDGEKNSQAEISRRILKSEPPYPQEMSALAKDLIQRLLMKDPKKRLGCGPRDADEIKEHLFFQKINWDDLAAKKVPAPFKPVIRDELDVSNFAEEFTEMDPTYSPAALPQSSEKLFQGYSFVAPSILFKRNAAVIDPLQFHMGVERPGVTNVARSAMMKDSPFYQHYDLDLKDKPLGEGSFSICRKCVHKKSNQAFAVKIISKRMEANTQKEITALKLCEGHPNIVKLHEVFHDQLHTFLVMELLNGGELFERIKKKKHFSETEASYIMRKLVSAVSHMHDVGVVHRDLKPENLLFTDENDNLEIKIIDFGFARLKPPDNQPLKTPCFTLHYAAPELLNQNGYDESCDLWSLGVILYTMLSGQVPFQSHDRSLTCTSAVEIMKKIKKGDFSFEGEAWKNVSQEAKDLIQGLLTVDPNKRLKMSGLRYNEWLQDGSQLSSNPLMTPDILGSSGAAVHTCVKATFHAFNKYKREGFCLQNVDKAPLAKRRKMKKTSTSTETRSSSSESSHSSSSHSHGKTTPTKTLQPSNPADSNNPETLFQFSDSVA

[19] = target: CDK2 (Homo sapiens, UniProt P24941)
[20] = target: SRC (Homo sapiens, UniProt P12931)
[21] = target: PRKAB2 (Homo sapiens, UniProt O43741)
Sequence of PRKAB2 (O43741 whole entry): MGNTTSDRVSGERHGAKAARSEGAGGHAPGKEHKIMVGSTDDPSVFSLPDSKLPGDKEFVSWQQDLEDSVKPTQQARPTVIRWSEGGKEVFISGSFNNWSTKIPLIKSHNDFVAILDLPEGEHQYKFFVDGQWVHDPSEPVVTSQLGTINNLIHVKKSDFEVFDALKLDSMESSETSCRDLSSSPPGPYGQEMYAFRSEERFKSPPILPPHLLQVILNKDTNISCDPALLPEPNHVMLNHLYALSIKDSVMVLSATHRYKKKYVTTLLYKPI

## COc1ccccc1-c1n[nH]c2nc(N[C@H]3CC[C@H](NS(=O)(=O)CCC(F)(F)F)CC3)nc(OC)c12 [compound 31, 3,3,3-Trifluoro-N-(trans-4-((4-methoxy-3-(2-methoxyphenyl)-1H-pyrazolo[3,4-d]pyrimidin-6-yl)amino)cyclohexyl)propane-1-sulfonamide]
[1]
  IC50: ≥ 20 µM
[2]
  IC50: ≥ 20 µM
[3]
  IC50: ≥ 20 µM
[4]
  IC50: ≥ 20 µM
[5]
  IC50: ≥ 20 µM
[6]
  IC50: ≥ 20 µM
[7]
  IC50: ≥ 20 µM
[8]
  IC50: ≥ 20 µM
[9]
  IC50: 8.6 µM
[10]
  IC50: ≥ 20 µM
[11]
  IC50: ≥ 20 µM
[12]
  IC50: ≥ 20 µM
[13]
  IC50: ≥ 20 µM
[14]
  IC50: ≥ 20 µM
[15]
  IC50: ≥ 20 µM
[16]
  IC50: ≥ 20 µM
[17]
  IC50: ≥ 20 µM
[18]
  IC50: ≥ 20 µM
[19]
  IC50: 1200 nM
[20]
  IC50: ≥ 20 µM
[21]
  IC50: ≥ 20 µM
